The record followed here is DBAASP.

Test systems include Bacillus subtilis; Candida albicans; Escherichia coli; Micrococcus luteus; Proteus mirabilis; Pseudomonas aeruginosa; Saccharomyces cerevisiae; Salmonella typhimurium; Serratia marcescens; Shigella dysenteriae; Bacillus megaterium; Escherichia coli ML-35; Escherichia coli UB1005.
Common to all, as to experiment: ≥ marks a high value that may be exact or a test limit, other limits are often not marked, values filed in µg/mL are converted to µM
The subject of assay [1] is Escherichia coli ATCC 25922.
Assay [2] relates to Pseudomonas aeruginosa ATCC 15692.
Assay [3] deals with Salmonella typhimurium KCTC 1926.
For assay [4], the system named is Staphylococcus epidermidis.
Assay [5] has as its system Pseudomonas aeruginosa ATCC 27853.
Assay [6] has as its system Salmonella enterica subsp. enterica serovar Typhimurium ATCC 14028.
The test system of assay [7] is Staphylococcus aureus ATCC 25923.
For assay [8], the system named is Bacillus subtilis CMCC 63501.
For assay [9], the system named is Enterococcus faecalis ATCC 29212.
The test system of assay [10] is Salmonella enterica subsp. enterica serovar Pullorum C79-13.
In assay [11] the test system is Salmonella typhimurium ATCC 7731.
Assay [12] has as its system Staphylococcus aureus ATCC 29213.
For assay [13], the system named is Staphylococcus aureus ATCC 43300.
Assay [14] has as its system Staphylococcus epidermidis ATCC 12228.
Assay [15] concerns Micrococcus luteus ATCC 4698.

Structures are written as SMILES. Values after ≈ are worked out from the molar mass of the structure shown. Values joined by “and” are separate entries in the source; they are usually repeats but may differ in a detail not shown here. Equal entries are not always repeated.

As for `CC[C@H](C)[C@H](NC(=O)[C@H](Cc1cnc[nH]1)NC(=O)[C@H](Cc1cnc[nH]1)NC(=O)[C@@H](NC(=O)[C@H](CC(C)C)NC(=O)[C@H](Cc1cnc[nH]1)NC(=O)CNC(=O)[C@H](C)NC(=O)CNC(=O)[C@H](Cc1cnc[nH]1)NC(=O)[C@@H](NC(=O)[C@@H](NC(=O)[C@H](CO)NC(=O)CNC(=O)[C@H](C)NC(=O)[C@H](Cc1ccccc1)NC(=O)[C@H](CCCN=C(N)N)NC(=O)[C@H](CC(C)C)NC(=O)[C@@H](N)Cc1ccccc1)C(C)C)[C@@H](C)CC)C(C)C)C(=O)NCC(=O)N[C@H](C(=O)N[C@@H](C)C(=O)N[C@@H](CC(C)C)C(N)=O)C(C)C` [FLRFAGSVIHGAGHLVHHIGVAL], the MIC in assay [1] was 4 µM and 8 µM; in assay [2] it was at least 32 µM; in assay [3] it was at least 64 µM.
Take `CC[C@H](C)[C@H](NC(=O)CN)C(=O)N[C@@H](CC(C)C)C(=O)N[C@@H](CC(=O)O)C(=O)N[C@H](C(=O)N[C@@H](CC(C)C)C(=O)N[C@@H](CCCCN)C(=O)N[C@@H](CCC(N)=O)C(=O)N[C@@H](Cc1ccccc1)C(=O)N[C@@H](C)C(=O)N[C@@H](CCCCN)C(=O)NCC(=O)N[C@H](C(=O)NCC(=O)N[C@@H](CCCCN)C(=O)N[C@@H](CC(=O)O)C(=O)N[C@@H](CC(C)C)C(=O)N[C@H](C(=O)N[C@@H](CCCCN)C(=O)NCC(=O)N[C@@H](C)C(=O)N[C@@H](C)C(=O)N[C@@H](CCC(N)=O)C(=O)NCC(=O)N[C@H](C(=O)N[C@@H](CC(C)C)C(=O)N[C@@H](CO)C(=O)N[C@H](C(=O)N[C@H](C(=O)O)C(C)C)[C@@H](C)O)C(C)C)C(C)C)C(C)C)[C@@H](C)O` [GILDTLKQFAKGVGKDLVKGAAQGVLSTV]: the MIC with Bacillus subtilis is 17.2 µM (≈ 50 µg/mL); against Candida albicans, over 34.3 µM; in the assay with Escherichia coli, 8.58 µM (≈ 25 µg/mL); in the assay on Micrococcus luteus, 0.858 µM (≈ 2.5 µg/mL); in the assay with Proteus mirabilis it was 17.2 µM (≈ 50 µg/mL); in the assay with Pseudomonas aeruginosa, 8.58 µM (≈ 25 µg/mL). The MIC is 8.58 µM (≈ 25 µg/mL) against Saccharomyces cerevisiae; 17.2 µM (≈ 50 µg/mL) in the assay on Salmonella typhimurium; at least 34.3 µM against Serratia marcescens; 8.58 µM (≈ 25 µg/mL) against Shigella dysenteriae; at least 34.3 µM in assay [4].
Consider `CC[C@H](C)[C@H](NC(=O)[C@H](CCCCN)NC(=O)[C@H](CCCCN)NC(=O)[C@H](CC(C)C)NC(=O)[C@H](CCCCN)NC(=O)[C@H](CCC(=O)O)NC(=O)[C@H](CCCCN)NC(=O)[C@H](CCCCN)NC(=O)[C@H](CCCCN)NC(=O)[C@H](CC(N)=O)NC(=O)[C@H](CCCN=C(N)N)NC(=O)[C@H](Cc1ccccc1)NC(=O)[C@H](CCCCN)NC(=O)[C@H](CCCN=C(N)N)NC(=O)[C@H](CCCCN)NC(=O)[C@H](CCCN=C(N)N)NC(=O)[C@H](CCCCN)NC(=O)[C@H](CCCN=C(N)N)NC(=O)[C@H](CC(C)C)NC(=O)CN)C(=O)O` [GLRKRKRKFRNKKKEKLKKI], for which the MIC in the assay on Bacillus megaterium is at least 64 µM; in [1] it was over 64 µM; with Escherichia coli ML-35, at least 64 µM; in assay [5], over 64 µM; in assay [6], over 64 µM; in [7] it was over 64 µM.
As for `CC[C@H](C)[C@H](N)C(=O)N[C@@H](Cc1cnc[nH]1)C(=O)N[C@@H](CCCCN)C(=O)N[C@@H](Cc1ccccc1)C(=O)N[C@@H](Cc1c[nH]c2ccccc12)C(=O)N[C@@H](CCCN=C(N)N)C(=O)N[C@@H](CS)C(=O)N[C@@H](CCCN=C(N)N)C(=O)N[C@@H](CCCN=C(N)N)C(=O)N[C@@H](CCCN=C(N)N)C(=O)N[C@@H](Cc1ccccc1)C(=O)N[C@@H](CS)C(=O)N[C@@H](CCCN=C(N)N)C(=O)N[C@@H](Cc1c[nH]c2ccccc12)C(=O)N[C@@H](Cc1ccccc1)C(=O)N[C@@H](CCCCN)C(=O)N[C@@H](Cc1cnc[nH]1)C(=O)N[C@H](C(N)=O)[C@@H](C)CC` [IHKFWRCRRRFCRWFKHI], the MIC came to 16 µM (≈ 41.2 µg/mL) in assay [8]; 16 µM (≈ 41.2 µg/mL) in assay [9]; 8 µM (≈ 20.6 µg/mL) against Escherichia coli UB1005; 8 µM (≈ 20.6 µg/mL) in assay [5]; 8 µM (≈ 20.6 µg/mL) in assay [10]; 8 µM (≈ 20.6 µg/mL) in [11]. The MIC in assay [12] was 8 µM and 16 µM; in assay [13], 8 µM (≈ 20.6 µg/mL); in assay [14], 8 µM (≈ 20.6 µg/mL).
`CC[C@H](C)[C@H](N)C(=O)N[C@@H](Cc1cnc[nH]1)C(=O)N[C@@H](CCCCN)C(=O)N[C@@H](Cc1ccccc1)C(=O)N[C@@H](Cc1c[nH]c2ccccc12)C(=O)N[C@@H](CCCN=C(N)N)C(=O)N1CCC[C@H]1C(=O)NCC(=O)N[C@@H](CCCN=C(N)N)C(=O)N[C@@H](Cc1c[nH]c2ccccc12)C(=O)N[C@@H](Cc1ccccc1)C(=O)N[C@@H](CCCCN)C(=O)N[C@@H](Cc1cnc[nH]1)C(=O)N[C@H](C(N)=O)[C@@H](C)CC` [IHKFWRPGRWFKHI]: the MIC in assay [8] was 8 µM (≈ 15.3 µg/mL); in assay [9], 8 µM (≈ 15.3 µg/mL); against Escherichia coli UB1005, 4 µM (≈ 7.63 µg/mL); in [5] it was 4 µM (≈ 7.63 µg/mL); in [10], 4 µM (≈ 7.63 µg/mL); in assay [11] it was 8 µM (≈ 15.3 µg/mL). In addition, the MIC in [13] and in assay [14] was 16 µM (≈ 30.5 µg/mL) throughout.
Consider `CSCC[C@H](NC(=O)[C@@H](NC(=O)[C@@H](NC(=O)[C@H](CCCCN)NC(=O)[C@H](CC(C)C)NC(=O)[C@H](C)NC(=O)[C@H](CCCCN)NC(=O)[C@@H](NC(=O)[C@H](CC(C)C)NC(=O)[C@H](Cc1ccccc1)NC(=O)[C@H](CC(N)=O)NC(=O)[C@H](CCC(=O)O)NC(=O)[C@H](Cc1ccccc1)NC(=O)CNC(=O)[C@H](CC(C)C)NC(=O)[C@@H](N)CCCCN)C(C)C)[C@@H](C)O)C(C)C)C(=O)N[C@@H](Cc1cnc[nH]1)C(=O)N[C@H](C(=O)N1CCC[C@H]1C(=O)N[C@H](C(=O)N[C@@H](CO)C(=O)N1CCC[C@H]1C(=O)N[C@@H](CC(C)C)C(=O)N[C@@H](CC(C)C)C(N)=O)[C@@H](C)O)C(C)C` [KLGFENFLVKALKTVMHVPTSPLL], for which the MIC in [1] was 16 µM (≈ 42.9 µg/mL); against Micrococcus luteus, 4 µM (≈ 10.7 µg/mL); in assay [2], at least 256 µM; against Saccharomyces cerevisiae it was at least 64 µM; in assay [7], over 256 µM.
`CC(C)C[C@H](NC(=O)[C@H](CCCNC(=N)N)NC(=O)CNC(=O)CNC(=O)[C@@H](N)CCCNC(=N)N)C(=O)N[C@@H](CS)C(=O)N[C@@H](Cc1ccc(O)cc1)C(=O)N[C@@H](CS)C(=O)N[C@@H](CCCNC(=N)N)C(=O)N[C@@H](CCCNC(=N)N)C(=O)N[C@@H](CCCNC(=N)N)C(=O)N[C@@H](Cc1ccccc1)C(=O)N[C@@H](CS)C(=O)N[C@H](C(=O)N[C@@H](CS)C(=O)N[C@H](C(=O)NCC(=O)N[C@@H](CCCNC(=N)N)C(N)=O)C(C)C)C(C)C` [RGGRLCYCRRRFCVCVGR]: the MIC was 8 µM (≈ 17.3 µg/mL) in assay [8]; 16 µM (≈ 34.6 µg/mL) in assay [9]; 2 µM (≈ 4.32 µg/mL) in the assay with Escherichia coli UB1005; 16 µM (≈ 34.6 µg/mL) in assay [5]; 2 µM (≈ 4.32 µg/mL) in assay [10]; 8 µM (≈ 17.3 µg/mL) in [11]. Moreover, the MIC in assay [13] is 2 µM (≈ 4.32 µg/mL); in assay [14], 16 µM (≈ 34.6 µg/mL).
For `CC(C)C[C@H](NC(=O)[C@H](CCCN=C(N)N)NC(=O)[C@H](Cc1cnc[nH]1)NC(=O)[C@H](Cc1c[nH]c2ccccc12)NC(=O)CNC(=O)CNC(=O)[C@@H](N)CO)C(=O)N[C@@H](CCCN=C(N)N)C(=O)N[C@@H](CO)C(=O)O` [SGGWHRLRS], the MIC in assay [15] was at least 75 µM.

In general, MIC refers to the lowest concentration that inhibits growth of the organism.
